Experiments:
Format in all cases: in vivo
Stellaria media [1] = assay: Test Example 5: herbicidal effect by foliage application, plastic box (symbol P); details: 320 g/ha, 3 weeks after application
In short: (§1)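 Visual herbicidal score, taken three weeks post-application, of seedlings sprayed on the foliage with water-diluted emulsion at a predetermined amount; plants were 14 days old, greenhouse-raised at 25° C. to 30° C.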

wheat [2] = assay: Test Example 4: effect on crop by soil treatment (symbol e); details: application herbicide amount 320 g/ha
In short: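 Seeds were sown in spots on sterilized diluvial soil in a plastic box and covered with about 1.5 cm of soil. Plants were then grown in a greenhouse at 25° C. to 30° C.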

Lolium multiflorum Lam. = assay: Test Example 4: herbicidal effect by soil treatment (symbol K); details: application herbicide amount 320 g/ha
In short: (§2)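 Seeds were sown in sterilized diluvial soil, covered with about 1.5 cm of soil, and the soil surface was sprayed with a water-diluted emulsion of the compound at a predetermined rate. Plants grew in a greenhouse at 25° C. to 30° C.; effects were scored visually 3 weeks after application.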

[3] = test system: Echinochloa oryzacola Vasing.; assay: Test Example 1: herbicidal activity, application before weed generation in submerged conditions (symbol A); details: application herbicide amount 320 g/ha
In short: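 Scores run 0 to 5 by herbicidal ratio, with 5 meaning 90% or more and 0 meaning 5% or lower, read 3 weeks after treatment. Compound was applied as a diluted emulsion to the water surface of submerged alluvial-soil pots on the day weed seeds were sown.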

Avena fatua = assay: Test Example 5: herbicidal effect by foliage application, plastic box (symbol I); details: 320 g/ha, 3 weeks after application
In short: as §1

Setaria viridis [4] = assay: Test Example 4: herbicidal effect by soil treatment (symbol G); details: application herbicide amount 320 g/ha
In short: as §2

[5] = test system: Echinochloa crus-galli var. crus-galli; assay: Test Example 3: herbicidal effect by foliage application, Wagner pot (symbol H); details: application herbicide amount 320 g/ha
In short: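 Foliar spray of water-diluted emulsion formulation at a predetermined herbicide amount onto 14-day-old plants in flooded alluvial soil (water depth 0.1–0.5 cm), greenhouse 25–30 °C; rice sown alongside. Scored 3 wk post-application on set criteria.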

beet = assay: Test Example 5: effect on crop by foliage application, plastic box (symbol f); details: 320 g/ha, 3 weeks after application
In short: (§3)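 Sterilized diluvial soil, plastic box (21 × 13 × 7 cm); spot sowing, ~1.5 cm soil cover; greenhouse 25–30° C.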

Stellaria media [6] = assay: Test Example 4: herbicidal effect by soil treatment (symbol P); details: application herbicide amount 320 g/ha
In short: as §2

Amaranthus retroflexus [7] = assay: Test Example 5: herbicidal effect by foliage application, plastic box (symbol N); details: 320 g/ha, 3 weeks after application
In short: as §1

Abutilon theophrasti = assay: Test Example 5: herbicidal effect by foliage application, plastic box (symbol M); details: 320 g/ha, 3 weeks after application
In short: as §1

Amaranthus retroflexus [8] = assay: Test Example 4: herbicidal effect by soil treatment (symbol N); details: application herbicide amount 320 g/ha
In short: as §2

Setaria viridis [9] = assay: Test Example 5: herbicidal effect by foliage application, plastic box (symbol G); details: 320 g/ha, 3 weeks after application
In short: as §1

transplanted rice plant = assay: Test Example 1: effect on crop, application before weed generation in submerged conditions (symbol a); details: application herbicide amount 320 g/ha
In short: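 Alluvial soil pots flooded to 4 cm water, sown with Echinochloa oryzacola, Scirpus juncoides and Monochoria vaginalis, then transplanted with 2.5 leaf stage rice seedlings; pre-emergence application. Greenhouse 25° C. to 30° C.; scored 0–5 by herbicidal ratio 3 weeks after application.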

wheat [10] = assay: Test Example 5: effect on crop by foliage application, plastic box (symbol e); details: 320 g/ha, 3 weeks after application
In short: as §3

## Cc1cc(C)c(C2=C(O)CC(CC(=O)C3CC3)C2=O)c(C)c1 (stereo not drawn) [2-017]
Stellaria media [1]
  P: Stellaria media, herbicidal effect grade: 0 (Herbicidal ratio of 5% or lower (almost no effect))
Wheat [2]
  e: wheat, effect on crop grade: 0 (Herbicidal ratio of 5% or lower (almost no effect))
Lolium multiflorum Lam.
  K: Lolium multiflorum Lam., herbicidal effect grade: 5 (Herbicidal ratio of 90% or more (almost completely withered))
[3]
  Herbicidal effect grade, A: Echinochloa oryzacola Vasing.: 5 (Herbicidal ratio of 90% or more (almost completely withered))
Avena fatua
  I: Avena fatua, herbicidal effect grade: 4 (Herbicidal ratio of 70% or higher and lower than 90%)
Setaria viridis [4]
  G: Setaria viridis, herbicidal effect grade: 5 (Herbicidal ratio of 90% or more (almost completely withered))
[5]
  herbicidal effect on H (Echinochloa crus-galli var. crus-galli), grade 0-5: 5 (Herbicidal ratio of 90% or more (almost completely withered))
beet
  f: beet, effect on crop grade: 0 (Herbicidal ratio of 5% or lower (almost no effect))
Stellaria media [6]
  P: Stellaria media, herbicidal effect grade: 0 (Herbicidal ratio of 5% or lower (almost no effect))
Amaranthus retroflexus [7]
  N: Amaranthus retroflexus, herbicidal effect grade: 0 (Herbicidal ratio of 5% or lower (almost no effect))
Abutilon theophrasti
  M: Abutilon theophrasti, herbicidal effect grade: 1 (Herbicidal ratio of 5% or higher and lower than 20%)
Amaranthus retroflexus [8]
  N: Amaranthus retroflexus, herbicidal effect grade: 0 (Herbicidal ratio of 5% or lower (almost no effect))
Setaria viridis [9]
  G: Setaria viridis, herbicidal effect grade: 5 (Herbicidal ratio of 90% or more (almost completely withered))
Transplanted rice plant
  Effect grade on crop, a: transplanted rice plant: 5 (Herbicidal ratio of 90% or more (almost completely withered))
Wheat [10]
  e: wheat, effect on crop grade: 0 (Herbicidal ratio of 5% or lower (almost no effect))

From patent US11000033B2, “Ketone or oxime compound, and herbicide” (NISSAN CHEMICAL CORPORATION, priority 2014, dated 2021)
